A word on the TGI: it is the concentration giving total growth inhibition. A higher TGI goes with lower sensitivity of the cells. By GI50 is commonly meant the concentration giving 50% growth inhibition.

Assay in all cases: DTP human tumour cell line panel, 48 h
Test [1] has as its system A498 renal.
Test [2] deals with HCT-116 colon.
Test [3] relates to NCI-H226 lung.
The test system of test [4] is RXF 393 renal.
Test [5] has as its system SNB-19 CNS.
The subject of test [6] is SW-620 colon.
In test [7] the test system is UACC-257 melanoma.
Test [8] concerns UACC-62 melanoma.
The subject of test [9] is UO-31 renal.

Values joined by “and” are separate entries in the source; they are usually repeats but may differ in a detail not shown here. Identical values can stand only once.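 Grown in 96-well plates, cells were treated for 48 hours with each compound at five concentrations. Insufficient inhibition: endpoint recorded as highest concentration tested. Abbreviation: GI50, concentration required for 50% inhibition of growth. TGI denotes the concentration required for complete inhibition of growth.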

Turning to `CC(CCC(=O)O)C(=O)O` (configuration not stated), the TGI in test [1], in test [2], in test [3], in test [4], in [5] and in test [6] was greater than 100 µM in each case. Moreover, the total growth inhibition concentration (TGI) in [7], in test [8] and in [9] was greater than 100 µM throughout.

Turning to `O=C(O)c1ccc2c(c1)CCCC(c1ccc(Cl)cc1Cl)=C2c1ccc(O[C@H]2CCN(CCCF)C2)cc1`, the GI50 is 11.5 µM in test [1]; 7.98 µM in test [2]; 10.4 µM in test [3]; 3.38 µM in test [4]; 12 µM in test [5]; 14.3 µM in test [6]. For the same compound, the GI50 in test [7] was 14.1 µM; in [8] it was 12.7 µM; in [9], 9.76 µM. In addition, the total growth inhibition concentration (TGI) in [1] came out at 24.6 µM; in test [2], 21.7 µM; in test [3] it was 38.8 µM; in [4], 17 µM; in [5], 26.4 µM; in [6] it was 28.9 µM. Moreover, the total growth inhibition concentration (TGI) was determined as 30 µM in [7], 26.3 µM in test [8] and 25.6 µM in test [9].

As for `O=C1NC(=S)S/C1=C(/C=C(\CC(=O)c1ccccc1)c1ccc(Cl)cc1)c1ccccc1`, the GI50 in test [1] is 38 µM; in test [2], 31.8 µM; in test [3], 28.5 µM; in test [4] it was 23.4 µM; in test [5], 95.1 µM; in [6], 42.9 µM. Further, the GI50 in test [7] was 21.9 µM; in test [8] it was 21.6 µM; in test [9], 48.6 µM. For the same compound, the concentration for total growth inhibition (TGI) in [1] was 76 µM; in test [2], greater than 100 µM; in test [3] it was 90.4 µM; in test [4], 82.1 µM; in test [5] it was greater than 100 µM; in test [6] it was greater than 100 µM. For the same compound, the results for the TGI in test [7], in test [8] and in test [9] were 61.8 µM, 43.7 µM and greater than 100 µM, respectively.

Regarding `COc1cc2ncnc(Nc3ccc(F)c(Cl)c3)c2cc1NC(=O)/C=C/CN1CCCCC1`, the GI50 in [1] was 0.812 µM and 0.556 µM; in test [2], 1.45 µM and 1.54 µM; in test [3] it was 2.91 µM and 4.52 µM; in [4] it was 0.919 µM and 0.89 µM; in [5], 2.04 µM and 1.86 µM; in test [6], 1.84 µM and 1.64 µM. For the same compound, the GI50 in test [7] is 1.66 µM and 1.79 µM; in [8] it was 1.61 µM and 1.73 µM. For the same compound, the TGI in test [1] is 4.04 µM and 3.71 µM; in test [2], 3.1 µM and 3.54 µM; in [3] it was 19.3 µM and > 10 µM; in [4], 2.55 µM and 2.94 µM; in test [5], 17 µM and > 10 µM; in [6] it was 4.42 µM and 3.54 µM. For the same compound, the total growth inhibition concentration (TGI) in test [7] was 3.39 µM and 3.51 µM; in [8] it was 3.02 µM and 3.23 µM; in test [9], 2.23 µM and 1.99 µM.

Regarding `COc1ccc(C2=NN(C=O)C(c3cccc(Nc4ccnc5cc(Cl)ccc45)c3)C2)cc1` (configuration not stated), the GI50 is 1.35 µM in test [1]; 1.84 µM in test [2]; 3.13 µM in test [3]; 1.66 µM in test [4]; 5.11 µM in test [5]; 1.73 µM in test [6]. Further, the GI50 is 3.06 µM in test [7], 2.41 µM in test [8] and 3.25 µM in test [9]. In addition, the TGI in test [1] was 9.26 µM; in test [2], 6.02 µM; in test [3], greater than 100 µM; in [4], 7.61 µM; in test [5], greater than 100 µM; in test [6], 13.2 µM. Also, the concentration for total growth inhibition (TGI) in test [7] is 28.5 µM; in test [8], 20.6 µM; in test [9], 64.6 µM.

For `Cc1cc(S(=O)(=O)NC#N)c(S/C(=N\Nc2ccc([N+](=O)[O-])cc2)c2ccc(Cl)cc2)cc1Cl`, the concentration for total growth inhibition (TGI) in test [1] is 2.3 µM; in test [2] it was 26 µM; in [3], 46.1 µM; in [4] it was greater than 100 µM; in test [5], greater than 100 µM; in [6] it was 52.1 µM. Also, the TGI in [7], in test [8] and in test [9] was greater than 100 µM in each case. Besides, the GI50 in test [2] is 11.2 µM; in test [3], 18.5 µM; in [4], 34.4 µM; in test [5] it was 25.2 µM; in test [6], 21.1 µM; in test [7] it was greater than 100 µM. Moreover, the GI50 in test [8] is greater than 100 µM; in test [9] it was 34 µM.

Take `Nc1ccccc1C#C/C=C\C#Cc1ccccc1`: the GI50 in [1] was 15.3 µM; in test [2], 14.1 µM; in test [3], 11.8 µM; in [4], 29.9 µM; in [5], 29.7 µM; in [6], 19.3 µM. Also, the GI50 in test [7] is 27.7 µM; in test [8], 13 µM; in test [9] it was 17.7 µM. The TGI is 31.1 µM in [1]; 28.6 µM in test [2]; 31.3 µM in test [3]; greater than 100 µM in [4]; greater than 100 µM in [5]; 41.7 µM in [6]. For the same compound, the results for the TGI in [7], in test [8] and in test [9] were greater than 100 µM, 27.7 µM and 59.3 µM, respectively.

On to `CC[C@]1(O)C(=O)OCc2c1cc1n(c2=O)Cc2cc3c(N)cccc3nc2-1`, for which the TGI in [1], in test [2], in test [3], in test [4], in test [5] and in test [6] was greater than 100 µM throughout. For the same compound, the TGI in [7], in test [8] and in test [9] was greater than 100 µM each time.

Consider `CC[PH+](CC)CC.O=COC1OC([S-])C(OC=O)C(OC=O)C1OC=O.[Au+]` (configuration not stated), for which the GI50 in test [1] was 1.86 µM; in test [2], 1.56 µM; in test [3], 1.96 µM; in test [4], 1.35 µM; in [5], 1.34 µM; in [6] it was 1.85 µM. The results for the GI50 in test [7], in test [8] and in test [9] were 1.19 µM, 1.06 µM and 1.69 µM, respectively. The TGI in [1] worked out at 3.29 µM; in [2], 3.15 µM; in test [3], 4.23 µM; in test [4] it was 2.72 µM; in test [5], 2.61 µM; in test [6], 3.83 µM. In addition, the total growth inhibition concentration (TGI) came to 3.29 µM in test [7], 2.31 µM in test [8] and 3.05 µM in test [9].

Source of the values: PubChem BioAssay (NCI).
